Results published in patent US20240383875A1, “Benzimidazole Pyridine Derivatives” (Hoffmann-La Roche Inc., priority 2022, published 2024).
Each block holds one molecule with its values, some of them ahead of it.

Key:
Assay type in all cases: biochemical
SIK2 = SIK2 (Homo sapiens, UniProt Q9H0K1); assay: Enzymatic activity assay SIK2, RapidFire mass spectrometry (phosphorylation of CHK-peptide); settings: RapidFire MS, inhibition of SIK2; read-out: SIK2 RF IC50
Summary of the method: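 SIK2 (0.5 nM) in pH 7.0 HEPES buffer with 10 mM Mg acetate phosphorylates CHK-peptide (10 μM solution) with 100 μM ATP solution, 45 min ambient, then formic acid quench.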

SIK1 = SIK1 (Homo sapiens, UniProt P57059); assay: Enzymatic activity assay SIK1, RapidFire mass spectrometry (phosphorylation of CHK-peptide); settings: RapidFire MS, inhibition of SIK1; read-out: SIK1 RF IC50
Summary of the method: (§1)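 Compounds (12-point, 3-fold, generally 30 μM to 170 pM) were pre-incubated 30 min at ambient temperature with SIK1 (5 nM), SIK2 (0.5 nM) or SIK3 (1.5 nM) in HEPES pH 7.0/magnesium acetate buffer. CHK-peptide (10 μM solution) and ATP (100 μM solution) were then added for 45 min before formic acid quench.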

SIK3 = SIK3 (Homo sapiens, UniProt Q9Y2K2); assay: Enzymatic activity assay SIK3, RapidFire mass spectrometry (phosphorylation of CHK-peptide); settings: RapidFire MS, inhibition of SIK3; read-out: SIK3 RF IC50
Summary of the method: as §1

Chain of SIK3 (Q9Y2K2 whole entry): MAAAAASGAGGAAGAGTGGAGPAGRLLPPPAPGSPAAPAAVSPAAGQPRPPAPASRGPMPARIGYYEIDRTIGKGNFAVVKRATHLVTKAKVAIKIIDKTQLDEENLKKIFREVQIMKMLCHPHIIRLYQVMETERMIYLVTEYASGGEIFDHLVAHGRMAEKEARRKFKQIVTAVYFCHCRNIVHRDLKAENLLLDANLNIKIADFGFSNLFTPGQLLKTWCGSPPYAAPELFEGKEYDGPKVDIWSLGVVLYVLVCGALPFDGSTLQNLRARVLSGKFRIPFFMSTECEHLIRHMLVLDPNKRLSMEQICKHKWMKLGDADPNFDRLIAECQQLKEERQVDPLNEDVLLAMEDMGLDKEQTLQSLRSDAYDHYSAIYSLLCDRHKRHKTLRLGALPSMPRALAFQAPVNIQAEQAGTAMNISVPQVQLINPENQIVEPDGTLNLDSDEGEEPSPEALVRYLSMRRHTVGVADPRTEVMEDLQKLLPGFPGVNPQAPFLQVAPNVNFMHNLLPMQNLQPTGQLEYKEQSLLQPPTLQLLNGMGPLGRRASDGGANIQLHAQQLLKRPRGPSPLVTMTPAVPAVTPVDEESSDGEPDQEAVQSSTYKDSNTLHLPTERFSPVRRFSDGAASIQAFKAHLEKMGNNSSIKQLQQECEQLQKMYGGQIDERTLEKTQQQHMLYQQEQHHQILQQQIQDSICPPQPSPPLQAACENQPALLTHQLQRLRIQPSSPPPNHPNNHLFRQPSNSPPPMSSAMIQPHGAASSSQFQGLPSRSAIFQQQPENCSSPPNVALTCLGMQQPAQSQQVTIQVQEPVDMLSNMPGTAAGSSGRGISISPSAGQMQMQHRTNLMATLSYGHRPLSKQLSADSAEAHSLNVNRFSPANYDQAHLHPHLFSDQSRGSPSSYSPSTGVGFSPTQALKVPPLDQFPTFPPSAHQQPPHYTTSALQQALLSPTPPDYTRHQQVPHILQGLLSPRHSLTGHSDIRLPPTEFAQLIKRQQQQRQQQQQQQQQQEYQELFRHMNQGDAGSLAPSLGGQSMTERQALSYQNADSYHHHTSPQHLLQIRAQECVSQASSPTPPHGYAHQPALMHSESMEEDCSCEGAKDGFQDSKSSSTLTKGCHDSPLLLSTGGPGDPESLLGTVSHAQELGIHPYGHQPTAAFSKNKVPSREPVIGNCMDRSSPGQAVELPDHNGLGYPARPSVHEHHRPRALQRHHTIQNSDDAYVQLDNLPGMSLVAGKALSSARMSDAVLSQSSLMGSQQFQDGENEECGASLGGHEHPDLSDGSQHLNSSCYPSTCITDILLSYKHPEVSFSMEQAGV
Chain of SIK2 (Q9H0K1 whole entry): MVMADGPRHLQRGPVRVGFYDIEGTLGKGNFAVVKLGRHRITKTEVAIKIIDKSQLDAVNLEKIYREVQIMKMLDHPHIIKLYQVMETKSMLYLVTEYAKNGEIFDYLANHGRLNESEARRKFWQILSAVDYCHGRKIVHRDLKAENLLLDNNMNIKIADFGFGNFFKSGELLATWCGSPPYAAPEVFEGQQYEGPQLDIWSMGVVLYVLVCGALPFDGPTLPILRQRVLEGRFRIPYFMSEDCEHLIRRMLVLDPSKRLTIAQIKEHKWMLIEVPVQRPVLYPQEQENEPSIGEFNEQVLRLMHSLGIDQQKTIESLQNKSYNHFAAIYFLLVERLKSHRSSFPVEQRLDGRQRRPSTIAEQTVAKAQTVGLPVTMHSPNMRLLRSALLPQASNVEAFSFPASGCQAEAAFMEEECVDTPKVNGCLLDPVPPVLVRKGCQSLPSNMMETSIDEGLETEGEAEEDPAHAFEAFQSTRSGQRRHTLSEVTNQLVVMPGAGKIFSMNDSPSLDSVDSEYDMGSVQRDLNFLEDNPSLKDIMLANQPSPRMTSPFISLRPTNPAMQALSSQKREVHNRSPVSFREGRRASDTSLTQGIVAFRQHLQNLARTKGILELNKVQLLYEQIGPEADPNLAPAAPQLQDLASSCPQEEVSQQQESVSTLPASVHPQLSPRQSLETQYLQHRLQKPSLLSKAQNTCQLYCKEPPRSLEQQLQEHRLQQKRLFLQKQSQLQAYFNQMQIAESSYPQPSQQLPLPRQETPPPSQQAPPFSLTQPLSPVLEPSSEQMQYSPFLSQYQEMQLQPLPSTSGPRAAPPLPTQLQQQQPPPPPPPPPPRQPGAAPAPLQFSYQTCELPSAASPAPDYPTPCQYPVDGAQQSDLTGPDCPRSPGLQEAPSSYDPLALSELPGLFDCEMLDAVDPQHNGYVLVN
Chain of SIK1 (P57059 whole entry): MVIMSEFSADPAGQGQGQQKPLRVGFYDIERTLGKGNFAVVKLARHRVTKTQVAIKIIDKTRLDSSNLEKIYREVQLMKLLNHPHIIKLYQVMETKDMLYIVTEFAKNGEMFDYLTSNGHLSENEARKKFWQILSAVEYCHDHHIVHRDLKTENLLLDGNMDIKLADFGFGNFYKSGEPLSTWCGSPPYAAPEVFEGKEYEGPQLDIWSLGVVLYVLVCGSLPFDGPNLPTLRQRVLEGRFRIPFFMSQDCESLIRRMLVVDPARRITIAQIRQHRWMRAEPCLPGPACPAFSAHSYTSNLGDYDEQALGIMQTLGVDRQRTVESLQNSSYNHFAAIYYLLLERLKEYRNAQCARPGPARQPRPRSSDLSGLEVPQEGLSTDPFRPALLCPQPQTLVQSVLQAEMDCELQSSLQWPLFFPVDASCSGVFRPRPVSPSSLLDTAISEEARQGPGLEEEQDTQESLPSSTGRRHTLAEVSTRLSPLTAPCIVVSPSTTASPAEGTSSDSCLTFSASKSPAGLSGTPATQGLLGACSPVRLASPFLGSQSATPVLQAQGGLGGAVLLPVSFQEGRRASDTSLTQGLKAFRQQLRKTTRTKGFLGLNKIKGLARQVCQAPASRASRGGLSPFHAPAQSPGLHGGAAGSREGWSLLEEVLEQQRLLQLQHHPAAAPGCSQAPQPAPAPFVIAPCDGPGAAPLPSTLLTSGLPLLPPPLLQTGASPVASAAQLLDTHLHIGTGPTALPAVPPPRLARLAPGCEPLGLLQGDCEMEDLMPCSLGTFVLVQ

Compound: Cc1ccc(Nc2ccc3c(c2)ncn3-c2ccc(C(C)O)c(-c3cnn4c3C(=O)NCC4)n2)nn1 (stereo not drawn) [Example 165, 3-[3-(1-Hydroxyethyl)-6-[5-[(6-methylpyridazin-3-yl)amino]benzimidazol-1-yl]-2-pyridyl]-6,7-dihydro-5H-pyrazolo[1,5-a]pyrazin-4-one]
IC50 (SIK2): 359 nM
IC50 (SIK1): 13300 nM
IC50 (SIK3): 95.5 nM

Compound: Cc1cc(C#N)nn1-c1nc(-n2cnc3cc(N[C@H]4CNC[C@H]4F)c(F)cc32)ccc1C(C)O (stereo partly drawn) [Example 166, 1-[6-[6-Fluoro-5-[[(3S,4R)-4-fluoropyrrolidin-3-yl]amino]benzimidazol-1-yl]-3-(1-hydroxyethyl)-2-pyridyl]-5-methyl-pyrazole-3-carbonitrile; formic acid]
IC50 (SIK2): 83.2 nM
IC50 (SIK1): 681 nM
IC50 (SIK3): 40.8 nM

Compound: Cc1ccc(Nc2ccc3c(c2)ncn3-c2ccc(C(C)O)c(-c3cc(OC(F)F)ncc3C)n2)nn1 (stereo not drawn) [Example 167, 1-[2-[2-(Difluoromethoxy)-5-methyl-4-pyridyl]-6-[5-[(6-methylpyridazin-3-yl)amino]benzimidazol-1-yl]-3-pyridyl]ethanol]
IC50 (SIK2): 0.9 nM
IC50 (SIK1): 40 nM
IC50 (SIK3): 1.2 nM

Compound: Cc1ccc(Nc2ccc3c(c2)ncn3-c2ccc(C(C)O)c(-c3cc(F)ncc3C)n2)nn1 (stereo not drawn) [Example 168, 1-[2-(2-Fluoro-5-methyl-4-pyridyl)-6-[5-[(6-methylpyridazin-3-yl)amino]benzimidazol-1-yl]-3-pyridyl]ethanol]
IC50 (SIK2): 39.9 nM
IC50 (SIK1): 1760 nM
IC50 (SIK3): 8.6 nM

Compound: Cc1ccc(Nc2ccc3ncn(-c4ccc(C(C)O)c(-n5cc(C)c(C#N)n5)n4)c3c2)nn1 (stereo not drawn) [Example 169, 1-[3-(1-Hydroxyethyl)-6-[6-[(6-methylpyridazin-3-yl)amino]benzimidazol-1-yl]-2-pyridyl]-4-methyl-pyrazole-3-carbonitrile; formic acid]
IC50 (SIK2): 135 nM
IC50 (SIK1): 613 nM
IC50 (SIK3): 85.2 nM

Compound: Cc1ccc(Nc2ccc3c(c2)ncn3-c2ccc(C(C)O)c(-n3cc(C)c(C#N)n3)n2)nn1 (stereo not drawn) [Example 170, 1-[3-(1-Hydroxyethyl)-6-[5-[(6-methylpyridazin-3-yl)amino]benzimidazol-1-yl]-2-pyridyl]-4-methyl-pyrazole-3-carbonitrile; formic acid]
IC50 (SIK2): 2.1 nM
IC50 (SIK1): 216 nM
IC50 (SIK3): 1 nM

Compound: Cc1ccc(Nc2ccc3c(c2)ncn3-c2ccc(C(C)O)c(-n3nc(C(F)(F)F)c4c3CCN(C)C4)n2)nn1 (stereo not drawn) [Example 171, 1-[6-[5-[(6-Methylpyridazin-3-yl)amino]benzimidazol-1-yl]-2-[5-methyl-3-(trifluoromethyl)-6,7-dihydro-4H-pyrazolo[4,3-c]pyridin-1-yl]-3-pyridyl]ethanol; formic acid]
IC50 (SIK2): 0.3 nM
IC50 (SIK1): 9 nM
IC50 (SIK3): 0.7 nM

Compound: Cc1ccc(Nc2ccc3ncn(-c4ccc(C(C)O)c(N(C)CC5(C#N)CC5)n4)c3c2)nn1 (stereo not drawn) [Example 172, 1-[[[3-(1-hydroxyethyl)-6-[6-[(6-methylpyridazin-3-yl)amino]benzimidazol-1-yl]-2-pyridyl]-methyl-amino]methyl]cyclopropanecarbonitrile]
IC50 (SIK2): 2090 nM
IC50 (SIK1): 2620 nM
IC50 (SIK3): 1850 nM

Compound: Cc1ccc(Nc2ccc3c(c2)ncn3-c2ccc(C(C)O)c(N(C)CC3(C#N)CC3)n2)nn1 (stereo not drawn) [Example 173, 1-[[[3-(1-Hydroxyethyl)-6-[5-[(6-methylpyridazin-3-yl)amino]benzimidazol-1-yl]-2-pyridyl]-methyl-amino]methyl]cyclopropanecarbonitrile]
IC50 (SIK2): 198 nM
IC50 (SIK1): 3490 nM
IC50 (SIK3): 53.9 nM

Compound: Cc1ccc(Nc2ccc3c(c2)ncn3-c2ccc(C(C)O)c(-c3cc(F)cnc3Cl)n2)nn1 (stereo not drawn) [Example 174, 1-[2-(2-Chloro-5-fluoro-3-pyridyl)-6-[5-[(6-methylpyridazin-3-yl)amino]benzimidazol-1-yl]-3-pyridyl]ethanol; formic acid]
IC50 (SIK2): 151 nM
IC50 (SIK1): 12100 nM
IC50 (SIK3): 29 nM

Compound: Cc1ccc(Nc2ccc3c(c2)ncn3-c2ccc(C(C)O)c(-n3nc(C(F)(F)F)c4c3CCN(C3COC3)C4)n2)nn1 (stereo not drawn) [Example 177, 1-[6-[5-[(6-Methylpyridazin-3-yl)amino]benzimidazol-1-yl]-2-[5-(oxetan-3-yl)-3-(trifluoromethyl)-6,7-dihydro-4H-pyrazolo[4,3-c]pyridin-1-yl]-3-pyridyl]ethanol]
IC50 (SIK2): 2.8 nM
IC50 (SIK1): 253 nM
IC50 (SIK3): 3.1 nM

Compound: Cc1ccc(Nc2ccc3ncn(-c4ccc(C(C)O)c(-n5cc(C#N)c(C)n5)n4)c3c2)nn1 (stereo not drawn) [Example 178, 1-[3-(1-Hydroxyethyl)-6-[6-[(6-methylpyridazin-3-yl)amino]benzimidazol-1-yl]-2-pyridyl]-3-methyl-pyrazole-4-carbonitrile]
IC50 (SIK2): 6340 nM
IC50 (SIK1): 27000 nM
IC50 (SIK3): 10000 nM

Compound: CNc1ncccc1-c1nc(-n2cnc3cc(Nc4ccc(C)nn4)ccc32)ccc1C(C)O (stereo not drawn) [Example 179, 1-[2-[2-(Methylamino)-3-pyridyl]-6-[5-[(6-methylpyridazin-3-yl)amino]benzimidazol-1-yl]-3-pyridyl]ethanol; formic acid]
IC50 (SIK2): 414 nM
IC50 (SIK1): > 30000 nM
IC50 (SIK3): 74.3 nM

Compound: Cc1ccc(Nc2ccc3c(c2)ncn3-c2ccc(C(C)O)c(-n3cc(C#N)c(C)n3)n2)nn1 (stereo not drawn) [Example 182, 1-[3-(1-Hydroxyethyl)-6-[5-[(6-methylpyridazin-3-yl)amino]benzimidazol-1-yl]-2-pyridyl]-3-methyl-pyrazole-4-carbonitrile]
IC50 (SIK2): 88.9 nM
IC50 (SIK1): 15400 nM
IC50 (SIK3): 25.7 nM

Compound: Cc1ccc(Nc2ccc3c(c2)ncn3-c2ccc(C(C)O)c(N3CC(C)(C#N)C3)n2)nn1 (stereo not drawn) [Example 183, 1-[3-(1-Hydroxyethyl)-6-[5-[(6-methylpyridazin-3-yl)amino]benzimidazol-1-yl]-2-pyridyl]-3-methyl-azetidine-3-carbonitrile]
IC50 (SIK2): 94.5 nM
IC50 (SIK1): 2830 nM
IC50 (SIK3): 17.5 nM

Compound: Cc1ccc(Nc2ccc3ncn(-c4ccc(C(C)O)c(N5CC(C)(C#N)C5)n4)c3c2)nn1 (stereo not drawn) [Example 184, 1-[3-(1-Hydroxyethyl)-6-[6-[(6-methylpyridazin-3-yl)amino]benzimidazol-1-yl]-2-pyridyl]-3-methyl-azetidine-3-carbonitrile]
IC50 (SIK2): 2500 nM
IC50 (SIK1): 1990 nM
IC50 (SIK3): 1900 nM

Second part, the molecule after the results:

IC50 (SIK2): 0.3 nM
IC50 (SIK1): 6 nM
IC50 (SIK3): 0.7 nM
Compound: COc1cc2c(cc1Nc1ccc(C)nn1)ncn2-c1ccc(C(C)O)c(-n2nc(C#N)cc2C)n1 (stereo not drawn) [Example 185, 1-[3-(1-Hydroxyethyl)-6-[6-methoxy-5-[(6-methylpyridazin-3-yl)amino]benzimidazol-1-yl]-2-pyridyl]-5-methyl-pyrazole-3-carbonitrile]

IC50 (SIK2): 2 nM
IC50 (SIK1): 70 nM
IC50 (SIK3): 5.6 nM
Compound: COCCOc1cc2c(cc1Nc1ccc(C)nn1)ncn2-c1ccc(C(C)O)c(-n2nc(C#N)cc2C)n1 (stereo not drawn) [Example 187, 1-[3-(1-Hydroxyethyl)-6-[6-(2-methoxyethoxy)-5-[(6-methylpyridazin-3-yl)amino]benzimidazol-1-yl]-2-pyridyl]-5-methyl-pyrazole-3-carbonitrile]

IC50 (SIK2): 3.9 nM
IC50 (SIK1): 186 nM
IC50 (SIK3): 4.7 nM
Compound: Cc1ccc(Nc2cc3ncn(-c4ccc(C(C)O)c(-n5nc(C#N)cc5C)n4)c3cc2OCCN(C)C)nn1 (stereo not drawn) [Example 189, 1-[6-[6-[2-(Dimethylamino)ethoxy]-5-[(6-methylpyridazin-3-yl)amino]benzimidazol-1-yl]-3-(1-hydroxyethyl)-2-pyridyl]-5-methyl-pyrazole-3-carbonitrile]

IC50 (SIK2): 50.8 nM
IC50 (SIK1): 84 nM
IC50 (SIK3): 382 nM
Compound: Cc1cc(C#N)nn1-c1nc(-n2cnc3cc(Br)c(N4CCN(C5COC5)CC4)cc32)ccc1C(C)O (stereo not drawn) [Example 190, 1-[6-[5-Bromo-6-[4-(oxetan-3-yl)piperazino]benzimidazol-1-yl]-3-(1-hydroxyethyl)-2-pyridyl]-5-methyl-pyrazole-3-carbonitrile]

IC50 (SIK2): 2.7 nM
IC50 (SIK1): 53 nM
IC50 (SIK3): 2.2 nM
Compound: COC1CN(C(=O)c2ccc(Nc3ccc4c(c3)ncn4-c3ccc(C(C)O)c(-n4nc(C#N)cc4C)n3)nn2)C1 (stereo not drawn) [Example 191, 1-[3-(1-Hydroxyethyl)-6-[5-[[6-(3-methoxyazetidine-1-carbonyl)pyridazin-3-yl]amino]benzimidazol-1-yl]-2-pyridyl]-5-methyl-pyrazole-3-carbonitrile]

IC50 (SIK2): 3.1 nM
IC50 (SIK1): 196 nM
IC50 (SIK3): 4 nM
Compound: Cc1ccc(Nc2cc3ncn(-c4ccc(C(C)O)c(-n5nc(C#N)cc5C)n4)c3cc2OC2CCNC2)nn1 (stereo not drawn) [Example 192, 1-[3-(1-Hydroxyethyl)-6-[5-[(6-methylpyridazin-3-yl)amino]-6-pyrrolidin-3-yloxy-benzimidazol-1-yl]-2-pyridyl]-5-methyl-pyrazole-3-carbonitrile]

IC50 (SIK2): 3.2 nM
IC50 (SIK1): 68 nM
IC50 (SIK3): 1.9 nM
Compound: COCCOc1ccc(Nc2ccc3c(c2)ncn3-c2ccc(C(C)O)c(-n3nc(C#N)cc3C)n2)nn1 (stereo not drawn) [Example 193, 1-[3-(1-Hydroxyethyl)-6-[5-[[6-(2-methoxyethoxy)pyridazin-3-yl]amino]benzimidazol-1-yl]-2-pyridyl]-5-methyl-pyrazole-3-carbonitrile]

IC50 (SIK2): 288 nM
IC50 (SIK1): 3330 nM
IC50 (SIK3): 29.5 nM
Compound: Cc1ccc(Nc2ccc3c(c2)ncn3-c2ccc(C(C)O)c(-c3cccc4[nH]nnc34)n2)nn1 (stereo not drawn) [Example 194, 1-[2-(1H-Benzotriazol-4-yl)-6-[5-[(6-methylpyridazin-3-yl)amino]benzimidazol-1-yl]-3-pyridyl]ethanol]
